# Experiments:
# [1] = rat model; Lu et al. 2005, Xie et al. 2005; cited from earlier work
# [2] = Thermal profile / melt event of the free base and its salts; format: physicochemical; details: solid form
# From the text: (§1) The advantageous properties of salts according to the invention can be seen from the table below:
# (§2) The salts were all obtained in good yields.
# [3] = Hygroscopicity of the free base and its salts; format: physicochemical; details: solid form
# From the text: as §1, §2
# [4] = Norbury et al. 1983; cited from earlier work
# [5] = Balikova et al. 2001; cited from earlier work
# [6] = listed as maleic acid addition salt
Molecule,Good thermal profile with clean melt event [2],Hygroscopic [3],further results
(Z)-3-[2-(propionyloxy)phenyl]-2-propenoic ester,–,–,bioavailability over meptazinol itself [1]: significant increase
CCC1(c2cccc(OC(=O)Nc3ccc(C(=O)O)cc3)c2)CCCCN(C)C1.O=C(O)CC(=O)O (stereo not drawn) [Meptazinol PABA Carbamate Malonic Acid Addition Salt],yes,not be hygroscopic and no,Good thermal profile with clean melt event ([2]; listed as malonic acid addition salt): good thermal profiles with clean melt events
CCC1(c2cccc(OC(=O)Nc3ccc(C(=O)O)cc3)c2)CCCCN(C)C1.O=P(O)(O)O (stereo not drawn) [Meptazinol PABA Carbamate Phosphoric Acid Addition Salt],no,no,Hygroscopic ([3]; listed as phosphoric acid addition salt): not be hygroscopic
"CCC1(c2cccc(OC(=O)Nc3ccc(C(=O)O)cc3)c2)CCCCN(C)C1 (stereo not drawn) [meptazinol p-amino-benzoylcarbamate, Meptazinol para-amino benzoic acid carbamate]",no,yes,Hygroscopic ([3]; listed as meptazinol p-amino-benzoic acid carbamate): very hygroscopic
CCC1(c2cccc(OC(=O)Nc3ccc(C(=O)O)cc3)c2)CCCCN(C)C1.CS(=O)(=O)O (stereo not drawn) [Meptazinol PABA Carbamate Methanesulphonic Acid Addition Salt],yes,not be hygroscopic and no,Good thermal profile with clean melt event ([2]; listed as methanesulphonic acid addition salt): good thermal profiles with clean melt events
CCC1(c2cccc(OC(=O)Nc3ccc(C(=O)O)cc3)c2)CCCCN(C)C1.O=C(O)/C=C\C(=O)O (stereo not drawn) [Meptazinol PABA Carbamate Maleic Acid Addition Salt],yes,no,"Good thermal profile with clean melt event [2, 6]: good thermal profiles with clean melt events; Hygroscopic [3, 6]: not be hygroscopic"
CCC1(c2cccc(O)c2)CCCCN(C)C1 (stereo not drawn) [Meptazinol],–,–,oral bioavailability [4]: < 10%
CCC1(c2cccc(OC(=O)Nc3ccc(C(=O)O)cc3)c2)CCCCN(C)C1.O=S(=O)(O)O (stereo not drawn) [Meptazinol PABA Carbamate Sulphuric Acid Addition Salt],yes,not be hygroscopic and no,Good thermal profile with clean melt event ([2]; listed as sulphuric acid addition salt): good thermal profiles with clean melt events
CCC1(c2cccc(OC(=O)Nc3ccc(C(=O)O)cc3)c2)CCCCN(C)C1.Cl (stereo not drawn) [meptazinol p-amino-benzoylcarbamate•HCl],no,yes,–
COc1ccc2c3c1O[C@H]1[C@@H](O)CC[C@H]4[C@@H](C2)N(C)CC[C@@]341 [dihydrocodeine],–,–,share of an oral dose converted to dihydromorphine [5]: less than 2%
